Source: patent publication US10934310B2, “Inhibitors of Bruton's tyrosine kinase and method of their use” (JANSSEN PHARMACEUTICA NV, priority 2015, dated 2021)

Target: unphosphorylated-BTK kinase domain (UP-BTK), GST-tagged human BTK (389-659aa) (Homo sapiens (Human), UniProt Q06187)
Assay: BTK Kinase Lanthascreen Binding Assay
Details: for BTK_I_binding pIC50: pIC50 = negative log of the IC50 in molar; for IC50: read-out: BTK_I_binding pIC50 (converted)
Experimental: BTK Kinase Lanthascreen Binding Assay:
A BTK kinase lanthascreen binding assay monitors compound binding to unphosphorylated-BTK kinase domain (UP-BTK), by competing with a fluorescent labeled tracer. […] Data were analyzed using Xlfit™ version 5.3 from ID Business Solutions (Guildford), Microsoft Excel add-in. pIC50 refers to the negative log of the IC50 in molar.

[1] = compound, 50 nM Tracer 236, 2 nM anti-GST antibody, 60 minutes
[2] = Lanthascreen binding, 60 minutes incubation

unphosphorylated-BTK kinase domain (UP-BTK), GST-tagged human BTK (389-659aa), sequence (Q06187 389-659): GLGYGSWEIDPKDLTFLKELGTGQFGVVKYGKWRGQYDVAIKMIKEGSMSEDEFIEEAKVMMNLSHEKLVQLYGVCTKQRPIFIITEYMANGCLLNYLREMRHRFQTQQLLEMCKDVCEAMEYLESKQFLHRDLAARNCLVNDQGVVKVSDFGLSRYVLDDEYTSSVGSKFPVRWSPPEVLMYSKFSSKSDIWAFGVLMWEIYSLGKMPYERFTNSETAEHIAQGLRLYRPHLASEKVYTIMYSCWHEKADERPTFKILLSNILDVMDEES

| Structure (SMILES) | BTK_I_binding pIC50 [1] | BTK_I_binding pIC50 [2] | other results |
| --- | --- | --- | --- |
| CC(=O)N[C@@H]1CCC[C@@H](NC(=O)c2sc3nccc4c3c2NC(=O)N4c2ccc(Oc3ccccc3)cc2C)C1 (single isomer, unassigned) [Example 195, N-((1R,3R)-3-Acetamidocyclohexyl)-5-(*S)-(2-methyl-4-phenoxyphenyl)-4-oxo-4,5-dihydro-3H-1-thia-3,5,8-triazaacenaphthylene-2-carboxamide] | 7.55 | – | – |
| C=CC(=O)N[C@@H]1CCC[C@H]1NC(=O)c1sc2nccc3c2c1NC(=O)N3c1ccc(OC(C)C)cc1C (single isomer, unassigned) [Example 316, N-((1R,2R)-2-Acrylamidocyclopentyl)-5-(*S)-(4-isopropoxy-2-methylphenyl)-4-oxo-4,5-dihydro-3H-1-thia-3,5,8-triazaacenaphthylene-2-carboxamide] | – | 7.33 | – |
| CC(=O)N[C@H]1CCC[C@@H](NC(=O)c2sc3nccc4c3c2NC(=O)N4c2cnc(Oc3ccccc3)cc2C)C1 (single isomer, unassigned) [Example 360, N-((1R,3S)-3-Acetamidocyclohexyl)-5-(*S)-(4-methyl-6-phenoxypyridin-3-yl)-4-oxo-4,5-dihydro-3H-1-thia-3,5,8-triazaacenaphthylene-2-carboxamide] | – | 6.26 | – |
| Cc1cc(OC2CCCC2)ncc1N1C(=O)Nc2c(C(=O)N[C@@H]3CCC[C@@H]3N)sc3nccc1c23 (single isomer, unassigned) [Example 374, N-((1R,2S)-2-Aminocyclopentyl)-5-(*S)-(6-(cyclopentyloxy)-4-methylpyridin-3-yl)-4-oxo-4,5-dihydro-3H-1-thia-3,5,8-triazaacenaphthylene-2-carboxamide] | – | 6.82 | – |
| Cc1cc(Oc2ccccc2)ccc1N1C(=O)Nc2c(C(=O)N[C@@H]3CC[C@@H](NC(=O)CN(C)C)C3)sc3nccc1c23 [Example 217, N-((1R,3R)-3-(2-(Dimethylamino)acetamido)cyclopentyl)-5-(2-methyl-4-phenoxyphenyl)-4-oxo-4,5-dihydro-3H-1-thia-3,5,8-triazaacenaphthylene-2-carboxamide] | 7.44 | – | – |
| CC(=O)N[C@H]1CC[C@@H](NC(=O)c2sc3nccc4c3c2NC(=O)N4c2ccc(Oc3ccccc3)cc2C)C1 (single isomer, unassigned) [Example 244, N-((1R,3S)-3-Acetamidocyclopentyl)-5-(*S)-(2-methyl-4-phenoxyphenyl)-4-oxo-4,5-dihydro-3H-1-thia-3,5,8-triazaacenaphthylene-2-carboxamide] | 6.66 | – | – |
| C=CC(=O)N[C@H]1CCC[C@H](NC(=O)c2sc3nccc4c3c2NC(=O)N4c2ccc(OC(C)C)cc2C)C1 (single isomer, unassigned) [Example 274, N-((1S, S)-3-Acrylamidocyclohexyl)-5-(*R)-(4-isopropoxy-2-methylphenyl)-4-oxo-4,5-dihydro-3H-1-thia-3,5,8-triazaacenaphthylene-2-carboxamide] | – | – | IC50: > 1 µM |
| Cc1cc(Oc2ccccc2)ncc1N1C(=O)Nc2c(C(=O)N[C@@H]3CCC[C@@H]3NC(=O)CCCl)sc3nccc1c23 (single isomer, unassigned) [Example 210, N-((1R,2S)-2-(3-Chloropropanamido)cyclopentyl)-5-(*S)-(4-methyl-6-phenoxypyridin-3-yl)-4-oxo-4,5-dihydro-3H-1-thia-3,5,8-triazaacenaphthylene-2-carboxamide] | 7.19 | – | – |
| CNCC(=O)N[C@H]1CC[C@H](NC(=O)c2sc3nccc4c3c2NC(=O)N4c2ccc(Oc3ccccc3)cc2C)C1 [Example 246, 5-(2-Methyl-4-phenoxyphenyl)-N-((1S,3S)-3-(2-(methylamino)acetamido)cyclopentyl)-4-oxo-4,5-dihydro-3H-1-thia-3,5,8-triazaacenaphthylene-2-carboxamide] | 6.84 | – | – |
| N[C@H]1CCC[C@H]1NC(=O)c1sc2nccc3c2c1NC(=O)N3c1cccc(-c2ccccc2)c1 [Example 249, 5-([1,1′-Biphenyl]-3-yl)-N-((1R,2S)-2-aminocyclopentyl)-4-oxo-4,5-dihydro-3H-1-thia-3,5,8-triazaacenaphthylene-2-carboxamide] | 6.90 | – | – |
| Cc1cc(CC(C)C)ncc1N1C(=O)Nc2c(C(=O)N[C@@H]3CCC[C@@H]3NC(=O)/C=C/CNC(=O)CCCC(=O)NCCCOCCOCCOCCCNC(=O)CCCC[C@@H]3SC[C@@H]4NC(=O)N[C@@H]43)sc3nccc1c23 (single isomer, unassigned) [Example 464] | – | – | IC50: 0.229 µM |
| C=CC(=O)N[C@H]1CCCC[C@H]1NC(=O)c1sc2nccc3c2c1NC(=O)N3c1ccc(Oc2ccccc2)cc1 [Example 118, N-((1R,2S)-2-Acrylamidocyclohexyl)-4-oxo-5-(4-phenoxyphenyl)-4,5-dihydro-3H-1-thia-3,5,8-triazaacenaphthylene-2-carboxamide] | 8.12 | – | – |
| C=CC(=O)N[C@@H]1CC[C@@H](NC(=O)c2sc3nccc4c3c2NC(=O)N4c2ccc(Oc3ccccc3)cc2C)C1 [Example 184, N-((1R,3R)-3-Acrylamidocyclopentyl)-5-(2-methyl-4-phenoxyphenyl)-4-oxo-4,5-dihydro-3H-1-thia-3,5,8-triazaacenaphthylene-2-carboxamide] | 7.55 | – | – |
| CC(=O)NC1CCC[C@@H](NC(=O)c2sc3nccc4c3c2NC(=O)N4c2cnc(Oc3ccccc3)cc2C)C1 (single isomer, unassigned) [Example 422, N-((1R,3R)-3-Acetamidocyclohexyl)-5-(*S)-(4-methyl-6-phenoxypyridin-3-yl)-4-oxo-4,5-dihydro-3H-1-thia-3,5,8-triazaacenaphthylene-2-carboxamide] | – | 7.72 | – |
| C=CC(=O)N[C@H]1CCC[C@@H](NC(=O)c2sc3nccc4c3c2NC(=O)N4c2ccc(OC(C)C)cc2C)C1 (single isomer, unassigned) [Example 275, N-((1R,3S)-3-Acrylamidocyclohexyl)-5-(*R)-(4-isopropoxy-2-methylphenyl)-4-oxo-4,5-dihydro-3H-1-thia-3,5,8-triazaacenaphthylene-2-carboxamide] | – | – | IC50: > 1 µM |
| Cc1cc(OC(C)C)ncc1N1C(=O)Nc2c(C(=O)N[C@@H]3CC[C@H](N)C3)sc3nccc1c23 (single isomer, unassigned) [Example 429, N-((1R,3S)-3-Aminocyclopentyl)-5-(*S)-(6-isopropoxy-4-methylpyridin-3-yl)-4-oxo-4,5-dihydro-3H-1-thia-3,5,8-triazaacenaphthylene-2-carboxamide] | – | – | IC50: > 1 µM |
| Cc1cc(Oc2ccccc2)ccc1N1C(=O)Nc2c(C(=O)N[C@@H]3CCC[C@H](N(C)C)C3)sc3nccc1c23 [Example 24, N-((1R,3S)-3-(Dimethylamino)cyclohexyl)-5-(2-methyl-4-phenoxyphenyl)-4-oxo-4,5-dihydro-3H-1-thia-3,5,8-triazaacenaphthylene-2-carboxamide] | 6.59 | – | – |
| C=CC(=O)N[C@H]1CCC[C@H]1NC(=O)c1sc2nccc3c2c1NC(=O)N3c1cnnc(-c2ccccc2)c1 [Example 203, N-((1R,2S)-2-Acrylamidocyclopentyl)-4-oxo-5-(6-phenylpyridazin-4-yl)-4,5-dihydro-3H-1-thia-3,5,8-triazaacenaphthylene-2-carboxamide] | 8.06 | – | – |
| CNCC(=O)N[C@@H]1CCC[C@H]1NC(=O)c1sc2nccc3c2c1NC(=O)N3c1ccc(Oc2ccccc2)cc1C (single isomer, unassigned) [Example 112, 5-(*S)-(2-Methyl-4-phenoxyphenyl)-N-((1R,2R)-2-(2-(methylamino)acetamido)cyclopentyl)-4-oxo-4,5-dihydro-3H-1-thia-3,5,8-triazaacenaphthylene-2-carboxamide] | 8.04 | – | – |
| Cc1cc(OC(C)C)ccc1N1C(=O)Nc2c(C(=O)N[C@@H]3CCCC[C@@H]3N)sc3nccc1c23 [Example 160, N-((1R,2S)-2-Aminocyclohexyl)-5-(4-isopropoxy-2-methylphenyl)-4-oxo-4,5-dihydro-3H-1-thia-3,5,8-triazaacenaphthylene-2-carboxamide] | – | – | IC50: > 1 µM |
| C=CC(=O)N[C@@H]1CCC[C@H](NC(=O)c2sc3nccc4c3c2NC(=O)N4c2ccnc(-c3ccccc3)c2)C1 [Example 351, N-((1S,3R)-3-Acrylamidocyclohexyl)-4-oxo-5-(2-phenylpyridin-4-yl)-4,5-dihydro-3H-1-thia-3,5,8-triazaacenaphthylene-2-carboxamide] | – | – | IC50: > 1 µM |
| C=CC(=O)N[C@H]1CC[C@@H](NC(=O)c2sc3nccc4c3c2NC(=O)N4c2ccc(Oc3ccccc3)cn2)C1 (single isomer, unassigned) [Example 328, N-((1*R,3*S)-3-Acrylamidocyclopentyl)-4-oxo-5-(5-phenoxypyridin-2-yl)-4,5-dihydro-3H-1-thia-3,5,8-triazaacenaphthylene-2-carboxamide] | – | 6.58 | – |
| C=CC(=O)N[C@H]1CCC[C@H]1NC(=O)c1sc2nccc3c2c1NC(=O)N3c1cnc(Oc2cccnc2)cc1C [Example 490, N-((1R,2S)-2-Acrylamidocyclopentyl)-5-(4-methyl-6-(pyridin-3-yloxy)pyridin-3-yl)-4-oxo-4,5-dihydro-3H-1-thia-3,5,8-triazaacenaphthylene-2-carboxamide] | – | 7.40 | – |
| CC(=O)N[C@@H]1CCCC[C@H]1NC(=O)c1sc2nccc3c2c1NC(=O)N3c1ccc(Oc2ccccc2)cc1C (single isomer, unassigned) [Example 445, N-((1R,2R)-2-Acetamidocyclohexyl)-5-(*S)-(2-methyl-4-phenoxyphenyl)-4-oxo-4,5-dihydro-3H-1-thia-3,5,8-triazaacenaphthylene-2-carboxamide] | – | 6.73 | – |
| C=CC(=O)N[C@H]1CCC[C@H]1NC(=O)c1sc2nccc3c2c1NC(=O)N3c1ccc(Oc2cccnc2C)cc1 [Example 372, N-((1R,2S)-2-Acrylamidocyclopentyl)-5-(4-((2-methylpyridin-3-yl)oxy)phenyl)-4-oxo-4,5-dihydro-3H-1-thia-3,5,8-triazaacenaphthylene-2-carboxamide] | – | 7.93 | – |
